Paper PMC11025159 (Journal of Translational Medicine, 2024)

Experiment: Body weight, biochemical and haematological parameters in DHT-induced AGA mice (0.5% testosterone then topical treatment)
Assay type: in vivo, C57BL/6J mice
Method: The experiments were performed on C57BL/6 J and Athymic nude mice (NU/J Foxn1^nu) of 6–7 weeks of age obtained from Animal House Facility, CSIR-Indian Institute of Integrative Medicine (IIIM), Jammu, India. […] The animals were provided with ad libitum feed (standard pellet diet) and autoclaved RO water throughout the study. The body weight of mice was measured after seven days before treatment.
C57BL/6 J mice (male) were obtained from CSIR-IIIM Animal House at 7 weeks of age. We used a DHT-induced AGA mice model for this study. […] At the end of the experiment, skin samples were collected and preserved in 10% neutral buffered formalin for tissue sectioning and staining using haematoxylin and eosin (H&E). The histopathological examinations were performed under the 10× and 40× objectives of light microscope (Magnus, Mx21i).
Every two weeks during the experimental period, mice were anesthetized, and the blood samples were collected into tubes containing heparin sodium to detect the total and differential white blood cells, haemoglobin, red blood cell, platelet count, mean corpuscular haemoglobin, mean corpuscular volume, red blood cell volume, mean platelet volume, and analyzed using an automated haematology analyzer (Model: XT1800i; Make: Sysmex).
Every two weeks during the experimental period, mice and rats were anesthetized, and blood samples were collected into non-heparinized tubes and then centrifuged at 1000 rpm at 4 °C for 10 min to obtain the serum. The biochemical parameters, including total protein, aspartate aminotransferase, alanine aminotransferase, total protein, albumin, total bilirubin, direct bilirubin, glucose, total cholesterol, triglyceride, low-density lipoprotein, high-density lipoprotein, creatinine, and uric acid, were measured using an automatic biochemical analyzer (Model: EM360; Make: Erba Mannheim).

Fc1ccc(-c2cnc3[nH]cc(-c4ccnc(NC5CC5)n4)c3c2)cc1 [MJ04]
HCT (Day 21, 0.08 mg/Kg): 36%
HDL (Day 21, 0.08 mg/Kg): 105 mg/dL
HGB (Day 21, 0.08 mg/Kg): 10 g/dL
LDL (Day 21, 0.08 mg/Kg): 102 mg/dL
MCHC (Day 21, 0.08 mg/Kg): 28 g/dL
MCV (Day 21, 0.08 mg/Kg): 50 fL
NEUT (Day 21, 0.08 mg/Kg): 32.4%
PLT (Day 21, 0.08 mg/Kg): 424 103/μl
RBC (Day 21, 0.08 mg/Kg): 6.9 1012/l
Total protein (Day 21, 0.08 mg/Kg): 5.2 g/dL
Triglyceride (Day 21, 0.08 mg/Kg): 108 mg/dL
Urea (Day 21, 0.08 mg/Kg): 71 mg/dL
WBC (Day 21, 0.08 mg/Kg): 3.3 103/μl
LYMPH (Day 21, 0.08 mg/Kg, unit assumed): 63%
ALP (Day 28, 0.016 mg/Kg): 193 U/L
ALT/SGPT (Day 28, 0.016 mg/Kg): 85 U/L
AST/SGOT (Day 28, 0.016 mg/Kg): 75 U/L
Cholesterol (Day 28, 0.016 mg/Kg): 194 mg/dL
Creatine (Day 28, 0.016 mg/Kg): 0.20 mg/dL
HCT (Day 28, 0.016 mg/Kg): 46.0%
HDL (Day 28, 0.016 mg/Kg): 94 mg/dL
HGB (Day 28, 0.016 mg/Kg): 14 g/dL
LDL (Day 28, 0.016 mg/Kg): 109 mg/dL
MCHC (Day 28, 0.016 mg/Kg): 30.0 g/dL
MCV (Day 28, 0.016 mg/Kg): 63 fL
PLT (Day 28, 0.016 mg/Kg): 1727 103/μl
RBC (Day 28, 0.016 mg/Kg): 7.4 106/μl
Total protein (Day 28, 0.016 mg/Kg): 6.3 g/dL
Triglyceride (Day 28, 0.016 mg/Kg): 132 mg/dL
Urea (Day 28, 0.016 mg/Kg): 54 mg/dL
WBC (Day 28, 0.016 mg/Kg): 7.8 103/μl
ALP (Day 28, 0.04 mg/Kg): 243 U/L
ALT/SGPT (Day 28, 0.04 mg/Kg): 69 U/L
AST/SGOT (Day 28, 0.04 mg/Kg): 107 U/L
Cholesterol (Day 28, 0.04 mg/Kg): 165 mg/dL
Creatine (Day 28, 0.04 mg/Kg): 0.14 mg/dL
HCT (Day 28, 0.04 mg/Kg): 46.0%
HDL (Day 28, 0.04 mg/Kg): 108 mg/dL
HGB (Day 28, 0.04 mg/Kg): 14 g/dL
LDL (Day 28, 0.04 mg/Kg): 91 mg/dL
MCHC (Day 28, 0.04 mg/Kg): 30.0 g/dL
MCV (Day 28, 0.04 mg/Kg): 62.0 fL
PLT (Day 28, 0.04 mg/Kg): 1687 103/μl
RBC (Day 28, 0.04 mg/Kg): 7.5 106/μl
Total protein (Day 28, 0.04 mg/Kg): 5.8 g/dL
Triglyceride (Day 28, 0.04 mg/Kg): 122 mg/dL
Urea (Day 28, 0.04 mg/Kg): 52 mg/dL
WBC (Day 28, 0.04 mg/Kg): 7.5 103/μl
ALP (Day 28, 0.08 mg/Kg): 189 U/L
ALT/SGPT (Day 28, 0.08 mg/Kg): 63 U/L
AST/SGOT (Day 28, 0.08 mg/Kg): 113 U/L
Cholesterol (Day 28, 0.08 mg/Kg): 194 mg/dL
Creatine (Day 28, 0.08 mg/Kg): 0.13 mg/dL
HCT (Day 28, 0.08 mg/Kg): 52.0%
HDL (Day 28, 0.08 mg/Kg): 106 mg/dL
HGB (Day 28, 0.08 mg/Kg): 15 g/dL
LDL (Day 28, 0.08 mg/Kg): 78 mg/dL
MCHC (Day 28, 0.08 mg/Kg): 29.0 g/dL
MCV (Day 28, 0.08 mg/Kg): 61.0 fL
PLT (Day 28, 0.08 mg/Kg): 1362 103/μl
RBC (Day 28, 0.08 mg/Kg): 8.6 106/μl
Total protein (Day 28, 0.08 mg/Kg): 6.2 g/dL
Triglyceride (Day 28, 0.08 mg/Kg): 174 mg/dL
Urea (Day 28, 0.08 mg/Kg): 79 mg/dL
WBC (Day 28, 0.08 mg/Kg): 7.1 103/μl
